Legend:
[1] = collision cross section (TIMS, N2 drift gas) of the primary ion; higher = larger gas-phase ion size
Protocol: (§1)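 Reference mixture of environmental contaminants analysed by RP-LC (BEH C18, 50 °C; ESI+ with water/MeOH plus formic acid and ammonium formate, ESI- with ammonium bicarbonate) coupled to a timsTOF Pro 2 with trapped ion mobility in nitrogen (ramp/accumulation 100 ms). CCS was calibrated with Agilent tune mix (CCS compendium) and averaged over five injections at 0.5-500 ng/mL. The table reports the lowest-CCS (putative monomer) peak; retention times are on the same gradient.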

[2] = reversed-phase LC retention time (C18, 15 min MeOH gradient); higher = more hydrophobic / later elution
Protocol: as §1

[3] = ionization mode: ESI+, ion species: [M+H]+
[4] = ionization mode: ESI-, ion species: [M-H]-
[5] = ionization mode: ESI+, ion species: [M]+

SMILES | collision cross section [1, 3] [Å²] | reversed-phase LC retention time [2, 3] [min] | collision cross section [1, 4] [Å²] | reversed-phase LC retention time [2, 4] [min] | collision cross section [1, 5] [Å²] | reversed-phase LC retention time [2, 5] [min]
NC(=O)N1c2ccccc2CC(=O)c2ccccc21 [Oxcarbazepine] | 155.46 | 10.7 | – | – | – | –
CCOP(=O)(OCC)OC(=CCl)c1ccc(Cl)cc1Cl [Chlorfenvinphos] | 169.3 | 15.7 | – | – | – | –
O=C1c2c(O)cc(O)cc2O[C@H](c2ccc(O)c(O)c2)[C@H]1O [Taxifolin] | – | – | 164.44 | 5.86 | – | –
O=S(=O)(O)c1ccc2ccccc2c1 [2-Naphthalenesulfonic acid] | – | – | 142.13 | 8.49 | – | –
CC(C)(C)C(=O)C(Oc1ccc(Cl)cc1)n1ccnc1 (stereo unspecified) [Climbazole] | 172.6 | 13.1 | – | – | – | –
CC(C)(C)NC(=O)[C@H]1CC[C@H]2[C@@H]3CC[C@H]4NC(=O)C=C[C@]4(C)[C@H]3CC[C@]12C [Finasteride] | 203.71 | 14.6 | 198.56 | 15 | – | –
CCOP(=S)(OCC)Oc1cc(C)nc(C(C)C)n1 [Diazinon] | 172.11 | 15.6 | – | – | – | –
CN[C@H]1CC[C@@H](c2ccc(Cl)c(Cl)c2)c2ccccc21 [Sertraline] | 168.55 | 13.8 | – | – | – | –
Nc1cccc2cc(S(=O)(=O)O)ccc12 [5-Aminonaphthalene-2-sulfonic acid] | – | – | 147.46 | 4.88 | – | –
Nc1ccc(Cl)cc1 [4-Chloroaniline] | 114.68 | 8.59 | – | – | – | –
COc1cc2ccc(=O)oc2c(O)c1O [Fraxetin] | 138.67 | 8.29 | – | – | – | –
CCCCNS(=O)(=O)c1ccccc1 [N-Butylbenzenesulfonamide] | – | – | 148.3 | 12.8 | – | –
CC(C)CC(C)(O)C#CC(C)(O)CC(C)C (stereo unspecified) [TMDD] | 168.69 | 16.4 | – | – | – | –
O=c1[nH]nc(C(F)(F)F)s1 [Thiadone] | – | – | 115.69 | 6.79 | – | –
CC(C)Oc1cc(-n2nc(C(C)(C)C)oc2=O)c(Cl)cc1Cl [Oxadiazone] | 182.66 | 16.9 | – | – | – | –
CCC1=C(C)CN(C(=O)NCCc2ccc(S(=O)(=O)NC(=O)NC3CCC(C)CC3)cc2)C1=O (stereo unspecified) [Glimepiride] | 216.66 | 15.3 | 215.02 | 14.3 | – | –
O=C(O)C(F)(OC(F)(F)C(F)(F)C(F)(F)F)C(F)(F)F (stereo unspecified) [HFPO-DA] | – | – | 206.28 | 13 | – | –
O=P(O)(Oc1ccccc1)Oc1ccccc1 [Diphenylphosphate] | 155.07 | 17.6 | 152.14 | 10.8 | – | –
Cn1cnc2c1c(=O)[nH]c(=O)n2C [Theobromine] | 130.33 | 5.81 | – | – | – | –
Cc1cc(=O)n(-c2ccccc2)n1C [Phenazone] | 138.2 | 8.8 | – | – | – | –
CNC(=O)Oc1cc(C)c(S(C)(=O)=O)c(C)c1 [Methiocarb sulfone] | 162.89 | 9.59 | – | – | – | –

SMILES | collision cross section [1, 3] [Å²] | reversed-phase LC retention time [2, 3] [min] | collision cross section [1, 4] [Å²] | reversed-phase LC retention time [2, 4] [min] | collision cross section [1, 5] [Å²] | reversed-phase LC retention time [2, 5] [min]
C[C@]12CC(=O)[C@H]3[C@@H](CCC4=CC(=O)CC[C@@]43C)[C@@H]1CC[C@@H]2O [11-Ketotestosterone] | 174.04 | 12.6 | – | – | – | –
COC(=O)Nc1nc2ccccc2[nH]1 [Carbendazim] | 137.16 | 7.33 | – | – | – | –
CC1(C)CCC(Cc2ccc(Cl)cc2)C1(O)Cn1cncn1 (stereo unspecified) [Metconazole] | 170.17 | 15.8 | – | – | – | –
CCNc1nc(O)nc(NC(C)C)n1 [2-Hydroxyatrazine] | 147.52 | 8.5 | 146.65 | 10.7 | – | –
CCCCCCOC(=O)c1ccccc1C(=O)OCCCCCC [Di-n-hexyl phthalate] | 195.44 | 18.2 | – | – | – | –
C[C@]12CCC(=O)C=C1CC[C@@H]1[C@@H]2CC[C@]2(C)C(=O)CC[C@@H]12 [4-Androstene-3,17-dione] | 172.73 | 13.9 | – | – | – | –
CCCN(CCC)CCC [Tripropylamine] | 131.65 | 6.72 | – | – | – | –
CC(C)CC(C)NC1=CC(=O)C(Nc2ccccc2)=CC1=O (stereo unspecified) [6PPD-Quinone] | 181.85 | 15.6 | – | – | – | –
c1ccc2c(c1)[nH]c1cnccc12 [Norharmane] | 132.84 | 8.24 | 129.43 | 12.9 | – | –
C[C@H](O)C(=O)Nc1c(I)c(C(=O)NC(CO)CO)c(I)c(C(=O)NC(CO)CO)c1I [Iopamidol] | 216.64 | 5.52 | 206.33 | 3.71 | – | –
CC1OC(OCC2OC(Oc3c(-c4ccc(O)c(O)c4)oc4cc(O)cc(O)c4c3=O)C(O)C(O)C2O)C(O)C(O)C1O (stereo unspecified) [Rutin] | 233.31 | 9.72 | 232.48 | 8.1 | – | –
CC(C)(C)c1cc(-n2nc3ccccc3n2)c(O)c(C(C)(C)C)c1 [UV-320] | 188.24 | 19.7 | 193.86 | 20.9 | – | –
COc1nc(C)nc(NC(=O)NS(=O)(=O)c2ccccc2Cl)n1 [Chlorsulfuron] | 177.23 | 12.1 | 177.5 | 9.09 | – | –
Cn1c(N)nc2ncc(-c3ccccc3)cc21 [2-Amino-1-methyl-6-phenylimidazo[4,5-b]pyridine (PhIP)] | 152.56 | 9.5 | 152.05 | 12.1 | – | –
CCOP(=S)(OCC)SCSP(=S)(OCC)OCC [Ethion] | 176.99 | 16.9 | – | – | – | –
Oc1ccc(C(c2ccc(O)cc2)(C(F)(F)F)C(F)(F)F)cc1 [Bisphenol AF] | – | – | 165.55 | 14.8 | – | –
NC(=O)/N=C1\SCCN1Cc1ccc(Cl)nc1 [Thiacloprid amide] | 159.22 | 8.75 | – | – | – | –
COc1ccc(-c2coc3cc(O)cc(O)c3c2=O)cc1 [Biochanin A] | – | – | 166.25 | 12.9 | – | –
CCc1cccc(C)c1N(C(=O)CS(=O)(=O)O)C(C)COC (stereo unspecified) [Metolachlor ESA] | 170.74 | 12.1 | 173.48 | 12 | – | –
Nc1ccc(-c2ccc(N)cc2)cc1 [Benzidine] | 155.46 | 3.98 | – | – | – | –
CCN(CCO)c1ccc(N=Nc2sc3cc(OC)ccc3[n+]2C)cc1 [Basic Blue 41] | – | – | – | – | 195.62 | 12.1

SMILES | collision cross section [1, 3] [Å²] | reversed-phase LC retention time [2, 3] [min] | collision cross section [1, 4] [Å²] | reversed-phase LC retention time [2, 4] [min] | collision cross section [1, 5] [Å²] | reversed-phase LC retention time [2, 5] [min]
CC1(C)CON(Cc2ccccc2Cl)C1=O [Clomazon] | 146.86 | 13.5 | – | – | – | –
COC(=O)C(c1ccccc1Cl)N1CCc2sccc2C1 (stereo unspecified) [Clopidogrel] | 170.12 | 15.4 | – | – | – | –
CCCOP(=O)(OCCC)OCCC [Tripropyl phosphate] | 149 | 14.2 | – | – | – | –
O=C(c1ccccc1)c1ccc(O)cc1 [4-Hydroxybenzophenone] | – | – | 144.47 | 12 | – | –
Cc1cc(O)cc(C)c1S(C)=O (stereo unspecified) [Methiocarb-sulfoxide phenol] | 138.02 | 8.4 | – | – | – | –
Cc1cc(N)c2ccccc2n1 [4-Amino-2-methylquinoline] | 128.9 | 6.89 | – | – | – | –
Oc1c(Br)cc(Cl)cc1Cc1cc(Cl)cc(Br)c1O [Bromochlorophen] | – | – | 171.71 | 16.3 | – | –
Oc1ccc(Cl)cc1Cc1cc(Cl)ccc1O [Dichlorophen] | – | – | 155.04 | 15.3 | – | –
CCCCc1ncc(C(=O)O)n1Cc1ccc(C(=O)O)cc1 [Eprosartan acid] | – | – | 178.16 | 7.27 | – | –
N=C(Nc1ccccc1)Nc1ccccc1 [1,3-Diphenylguanidine] | 150.19 | 8.61 | – | – | – | –
CC(C)c1cc(C(C)(C)c2ccc(O)c(C(C)C)c2)ccc1O [Bisphenol G] | – | – | 187.67 | 16.8 | – | –
CC(C)N(C(=O)SCC(Cl)=C(Cl)Cl)C(C)C [Triallate] | 162.33 | 17.2 | – | – | – | –
CCC(=O)OCC(=O)C1(OC(=O)CC)C(C)CC2C3CCC4=CC(=O)C=CC4(C)C3(F)C(O)CC21C (stereo unspecified) [Betamethasone dipropionate] | 220.81 | 15.7 | 216.67 | 16.2 | – | –
CCCCOCCOP(=O)(OCCOCCCC)OCCOCCCC [Tri(butoxyethyl)phosphate] | 198.12 | 16.7 | – | – | – | –
C[C@]12CC[C@H]3[C@@H](CCC4=CC(=O)CC[C@@]43C)[C@@H]1CC[C@@H]2O [Testosterone] | 172.76 | 14.2 | – | – | – | –
O=P(OCCCl)(OCCCl)OCCCl [Tris(2-chloroethyl)phosphate] | 150.93 | 11.7 | – | – | – | –
CC(C)(C)c1ccc(O)cc1 [4-tert-Butylphenol] | – | – | 137.69 | – | – | –
CC(=O)[C@H]1CC[C@H]2[C@@H]3CCC4=CC(=O)CC[C@]4(C)[C@H]3CC[C@]12C [Progesterone] | 180.93 | – | – | – | – | –
N[C@@H](Cc1cc(I)c(Oc2ccc(O)c(I)c2)c(I)c1)C(=O)O [3,3',5-Triiodo-L-thyronine] | 209.12 | – | 199.54 | – | – | –
CCC(=C(c1ccc(O)cc1)c1ccc(OCCN(C)C)cc1)c1ccccc1 [4-Hydroxytamoxifen] | 202.55 | – | 214.38 | – | – | –
